Key:
[1] = target: CDK4/CyclinD1 (Homo sapiens, UniProt P11802); test: Kinase screening (radiometric or ADP-Glo assay); format: biochemical
Experimental: (§1) The in vitro enzyme inhibition determination for the pyrido[2,3-d]pyrimidine derivatives was performed against a range of five protein kinases [PDGFR beta, EGFR, CDK4/Cyclin D1, PI3K (p100b/p85a), and PI3K (p100a/p85a)], including two concentrations (50 & 100 μM) in single measurements using the radiometric or ADP-Glo assay method. The intra-assay variability was determined to be less than 10%. Inhibition of target activity by the compound gives negative (−) values, while activation of target activity gives positive (+) value.
(§2) The pyrido[2,3-d]pyrimidine derivative 5 was supplied by Kinexus as a powder, and a stock solution was made in DMSO. The stock solution was then diluted to form an assay stock solution, and this was used to profile against the protein kinases and lipid protein kinases [PDGFR beta, EGFR, CDK4/Cyclin D1, PI3K (p100b/p85a), and PI3K (p100a/p85a)]. The assay condition for the protein kinase targets was optimized to yield acceptable enzymatic activity. In addition, the assays were optimized to give high signal-to-noise ratio.
(§3) For Protein Kinase (PK) Assays, a radioisotope assay format was used for profiling evaluation of PK targets and all assays were carried out in a designated radioactive working area. PK assays (in singlicate) were performed at ambient temperature for 30 min in a final volume of 25 μl according to the following assay reaction recipe: Component 1:5 μl of diluted active PK target (˜10-50 nM final concentration); Component 2:5 μl of stock solution of substrate (1-5 μg of peptide substrate); Component 3:5 μl of kinase assay buffer; Component 4:5 μl of compound (50 μM) or 10% DMSO; and Component 5:5 μl of ^33P-ATP (250 μM stock solution, 0.8 μCi).
(§4) The assay was initiated by the addition of ^33P-ATP, and the reaction mixture incubated at ambient temperature for 30 minutes. After the incubation period, the assay was terminated by spotting 10 μl of the reaction mixture onto Multiscreen phosphocellulose P81 plate. The Multiscreen phosphocellulose P81 plate was washed 3 times for approximately 15 min each in a 1% phosphoric acid solution. The radioactivity on the P81 plate was counted in the presence of scintillation fluid in a Trilux scintillation counter. Blank control was set up that included all the assay components except the addition of the appropriate substrate (replaced with equal volume of assay dilution buffer). The corrected activity for PK target was determined by removing the blank control value.

[2] = target: PI3K (p110a/p85a) (Homo sapiens, UniProt P42336); test: Kinase screening (radiometric or ADP-Glo assay); format: biochemical; conditions: negative values: inhibition, positive values: activation of target activity
Experimental: as §1, §2, §3, §4

[3] = target: EGFR (Homo sapiens, UniProt P00533); test: Kinase screening (radiometric or ADP-Glo assay); format: biochemical
Experimental: as §1, §2, §3, §4

[4] = target: PDGFRβ (Homo sapiens, UniProt P09619); test: Kinase screening (radiometric or ADP-Glo assay); format: biochemical
Experimental: as §1, §2, §3, §4

[5] = test system: HCT116; test: In vitro anticancer screening, MTT cell viability; format: cell-based; conditions: Homo sapiens, HCT-116; for inhibition at 100 µM: HCT116, 100 μM dose, read-out: Growth inhibition (%); for IC50: HCT116, MTT, 48 h
Experimental: (§5) Anticancer activity screening was adopted against five cancer cell lines, viz., HepG2, PC-3, HCT116, MCF-7, A549, and doxorubicin was used as a reference standard at 100 micromole.
(§6) Cell viability was assessed by the mitochondrial dependent reduction of yellow MTT (3-(4,5-dimethylthiazol-2-yl)-2,5-diphenyl tetrazolium bromide) to purple formazan. All the following procedures were done in a sterile area using a laminar air flow cabinet of class II biosafety (Baker, SG403INT, Sanford, Me., USA). Cells were suspended in DMEM medium for PC-3, and RPMI1640 in case of A-549, MCF-7, HCT-116 and HePG-2. The media are supplemented with 1% antibiotic antimycotic mixture (10,000 U ml^−1 Potassium Penicillin, 10,000 μg ml^−1 Streptomycin Sulfate and 25 μg ml^−1 Amphotericin B), 1% L-glutamine and 10% fetal bovine serum (complete growth medium) and kept at […] under 5% CO2. Cells were batch cultured for 10 days, then seeded at a concentration of 10×10^3 cells/well in fresh complete growth medium in 96-well Microtiter plastic plates at 37° C. for 24 h under 5% CO2 and a humid atmosphere using a water jacketed carbon dioxide incubator (Sheldon, TC2323, Cornelius, Oreg., USA). Media was aspirated, fresh medium (without serum) was added, and cells were incubated either alone (negative control) or with serial dilutions of each sample. After 48 h of incubation, the medium was aspirated, 40 μl MTT salt (2.5 μg ml^−1) was added to each well and incubated for a further four hours at 37° C. under 5% CO2. To stop the reaction and dissolving the formed crystals, 200 μl of 10% sodium dodecyl sulfate (SDS) in deionized water was added to each well and incubated overnight at 37° C. The absorbance was then measured using a microplate multi-well reader ELISA reader (Bio-Rad Laboratories Inc., model 3350, Hercules, Calif., USA) at 595 nm and a reference wavelength of 620 nm. A statistical significance was tested between samples and negative control (cells with vehicle) using independent t-test by SPSS 11 program. DMSO is the vehicle used for dissolution of plant extracts, and its final concentration in the cells was less than 0.2%. The percentage of change in viability was calculated according to the formula: (average absorbance of extract/average absorbance of negative control)−1)×100. A probit analysis was carried for IC50 determination using SPSS 11 program.

[6] = test system: A549; test: In vitro anticancer screening, MTT cell viability; format: cell-based; conditions: Homo sapiens; for inhibition at 100 µM: A549, 100 μM dose, read-out: Growth inhibition (%)
Experimental: as §5, §6

[7] = test system: MCF7; test: In vitro anticancer screening, MTT cell viability; format: cell-based; conditions: Homo sapiens; for inhibition at 100 µM: MCF7, 100 μM dose, read-out: Growth inhibition (%)
Experimental: as §5, §6

[8] = test system: HepG2; test: In vitro anticancer screening, MTT cell viability; format: cell-based; conditions: Homo sapiens; for inhibition at 100 µM: HepG2, 100 μM dose, read-out: Growth inhibition (%); for IC50: HepG2, MTT, 48 h
Experimental: as §5, §6

[9] = test system: PC3; test: In vitro anticancer screening, MTT cell viability; format: cell-based; conditions: Homo sapiens, PC-3; for inhibition at 100 µM: PC3, 100 μM dose, read-out: Growth inhibition (%); for IC50: PC3, MTT, 48 h
Experimental: as §5, §6

PI3K (p110a/p85a), sequence (P42336 whole entry): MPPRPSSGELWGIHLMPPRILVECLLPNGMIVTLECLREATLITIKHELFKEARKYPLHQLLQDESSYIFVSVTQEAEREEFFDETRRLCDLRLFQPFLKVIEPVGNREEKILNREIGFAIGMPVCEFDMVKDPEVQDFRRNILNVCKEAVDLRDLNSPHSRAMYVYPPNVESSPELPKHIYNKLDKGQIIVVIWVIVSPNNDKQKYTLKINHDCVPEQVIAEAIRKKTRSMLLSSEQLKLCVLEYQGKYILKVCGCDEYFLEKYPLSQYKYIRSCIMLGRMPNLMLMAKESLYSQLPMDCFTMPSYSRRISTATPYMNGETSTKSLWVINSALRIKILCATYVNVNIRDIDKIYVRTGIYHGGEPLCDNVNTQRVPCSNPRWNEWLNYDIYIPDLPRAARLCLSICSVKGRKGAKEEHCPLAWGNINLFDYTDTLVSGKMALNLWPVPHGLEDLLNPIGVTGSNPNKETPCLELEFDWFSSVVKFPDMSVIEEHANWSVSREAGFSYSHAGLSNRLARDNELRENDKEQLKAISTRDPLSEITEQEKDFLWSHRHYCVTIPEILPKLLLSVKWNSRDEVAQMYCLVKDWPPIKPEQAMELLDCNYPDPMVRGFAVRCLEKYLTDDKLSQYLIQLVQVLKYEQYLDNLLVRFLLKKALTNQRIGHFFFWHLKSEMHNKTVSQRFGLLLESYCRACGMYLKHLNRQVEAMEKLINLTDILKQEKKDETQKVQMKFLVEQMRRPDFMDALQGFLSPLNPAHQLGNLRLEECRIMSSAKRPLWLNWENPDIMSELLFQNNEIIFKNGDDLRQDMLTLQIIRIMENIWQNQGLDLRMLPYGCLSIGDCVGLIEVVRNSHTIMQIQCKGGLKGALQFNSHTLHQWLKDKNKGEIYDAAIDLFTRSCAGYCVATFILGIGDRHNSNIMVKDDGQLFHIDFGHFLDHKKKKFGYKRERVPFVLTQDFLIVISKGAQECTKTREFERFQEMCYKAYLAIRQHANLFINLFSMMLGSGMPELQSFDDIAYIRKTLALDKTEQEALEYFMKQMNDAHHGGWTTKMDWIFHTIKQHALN
PI3K (p110a/p85a), sequence (P27986 whole entry partner): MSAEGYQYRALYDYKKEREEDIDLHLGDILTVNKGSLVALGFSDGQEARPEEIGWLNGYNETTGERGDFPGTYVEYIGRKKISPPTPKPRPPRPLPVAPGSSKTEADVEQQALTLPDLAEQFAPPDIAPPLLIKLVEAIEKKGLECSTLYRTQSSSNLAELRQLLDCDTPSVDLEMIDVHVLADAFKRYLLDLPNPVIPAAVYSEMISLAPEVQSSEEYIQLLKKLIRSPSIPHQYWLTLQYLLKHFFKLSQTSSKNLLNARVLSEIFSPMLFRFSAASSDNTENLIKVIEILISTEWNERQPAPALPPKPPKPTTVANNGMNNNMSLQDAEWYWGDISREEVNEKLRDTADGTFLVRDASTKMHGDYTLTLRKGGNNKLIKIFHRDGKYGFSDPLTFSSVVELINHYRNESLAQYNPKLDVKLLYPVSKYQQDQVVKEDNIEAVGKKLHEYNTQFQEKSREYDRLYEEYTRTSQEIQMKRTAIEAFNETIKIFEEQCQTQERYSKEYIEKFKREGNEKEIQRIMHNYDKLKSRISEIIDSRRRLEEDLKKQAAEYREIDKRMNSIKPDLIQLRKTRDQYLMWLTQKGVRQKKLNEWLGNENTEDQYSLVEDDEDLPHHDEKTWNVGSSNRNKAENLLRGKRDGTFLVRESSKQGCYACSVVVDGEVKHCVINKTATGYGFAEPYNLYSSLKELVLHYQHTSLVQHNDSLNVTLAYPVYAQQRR
PDGFRβ, sequence (P09619 33-1106, species assumed): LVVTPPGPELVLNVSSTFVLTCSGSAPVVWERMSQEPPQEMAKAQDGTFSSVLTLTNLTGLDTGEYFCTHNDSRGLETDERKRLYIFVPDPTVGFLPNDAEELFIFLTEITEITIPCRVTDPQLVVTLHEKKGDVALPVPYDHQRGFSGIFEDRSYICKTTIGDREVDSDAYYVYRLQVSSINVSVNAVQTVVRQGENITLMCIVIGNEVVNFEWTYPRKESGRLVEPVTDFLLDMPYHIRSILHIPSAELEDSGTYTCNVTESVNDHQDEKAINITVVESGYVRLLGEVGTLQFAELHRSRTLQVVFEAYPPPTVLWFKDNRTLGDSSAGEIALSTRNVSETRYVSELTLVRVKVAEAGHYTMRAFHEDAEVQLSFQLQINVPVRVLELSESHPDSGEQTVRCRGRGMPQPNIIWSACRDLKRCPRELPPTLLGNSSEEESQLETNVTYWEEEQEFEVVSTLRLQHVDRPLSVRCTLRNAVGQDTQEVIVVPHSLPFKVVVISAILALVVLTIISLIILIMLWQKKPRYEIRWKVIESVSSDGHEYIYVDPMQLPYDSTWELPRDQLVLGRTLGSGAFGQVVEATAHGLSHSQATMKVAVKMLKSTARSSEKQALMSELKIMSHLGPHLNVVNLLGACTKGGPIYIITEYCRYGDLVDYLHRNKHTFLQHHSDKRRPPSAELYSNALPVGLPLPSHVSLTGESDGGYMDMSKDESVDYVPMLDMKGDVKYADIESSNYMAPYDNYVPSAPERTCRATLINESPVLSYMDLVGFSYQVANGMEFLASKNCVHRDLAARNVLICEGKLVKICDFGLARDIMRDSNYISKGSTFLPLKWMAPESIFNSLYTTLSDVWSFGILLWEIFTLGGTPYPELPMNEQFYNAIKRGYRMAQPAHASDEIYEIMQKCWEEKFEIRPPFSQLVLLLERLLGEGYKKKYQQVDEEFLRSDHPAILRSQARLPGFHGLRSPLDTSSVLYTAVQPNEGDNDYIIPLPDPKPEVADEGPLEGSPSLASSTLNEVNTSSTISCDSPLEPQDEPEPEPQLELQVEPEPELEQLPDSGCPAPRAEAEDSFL
EGFR, sequence (P00533 25-1210, species assumed): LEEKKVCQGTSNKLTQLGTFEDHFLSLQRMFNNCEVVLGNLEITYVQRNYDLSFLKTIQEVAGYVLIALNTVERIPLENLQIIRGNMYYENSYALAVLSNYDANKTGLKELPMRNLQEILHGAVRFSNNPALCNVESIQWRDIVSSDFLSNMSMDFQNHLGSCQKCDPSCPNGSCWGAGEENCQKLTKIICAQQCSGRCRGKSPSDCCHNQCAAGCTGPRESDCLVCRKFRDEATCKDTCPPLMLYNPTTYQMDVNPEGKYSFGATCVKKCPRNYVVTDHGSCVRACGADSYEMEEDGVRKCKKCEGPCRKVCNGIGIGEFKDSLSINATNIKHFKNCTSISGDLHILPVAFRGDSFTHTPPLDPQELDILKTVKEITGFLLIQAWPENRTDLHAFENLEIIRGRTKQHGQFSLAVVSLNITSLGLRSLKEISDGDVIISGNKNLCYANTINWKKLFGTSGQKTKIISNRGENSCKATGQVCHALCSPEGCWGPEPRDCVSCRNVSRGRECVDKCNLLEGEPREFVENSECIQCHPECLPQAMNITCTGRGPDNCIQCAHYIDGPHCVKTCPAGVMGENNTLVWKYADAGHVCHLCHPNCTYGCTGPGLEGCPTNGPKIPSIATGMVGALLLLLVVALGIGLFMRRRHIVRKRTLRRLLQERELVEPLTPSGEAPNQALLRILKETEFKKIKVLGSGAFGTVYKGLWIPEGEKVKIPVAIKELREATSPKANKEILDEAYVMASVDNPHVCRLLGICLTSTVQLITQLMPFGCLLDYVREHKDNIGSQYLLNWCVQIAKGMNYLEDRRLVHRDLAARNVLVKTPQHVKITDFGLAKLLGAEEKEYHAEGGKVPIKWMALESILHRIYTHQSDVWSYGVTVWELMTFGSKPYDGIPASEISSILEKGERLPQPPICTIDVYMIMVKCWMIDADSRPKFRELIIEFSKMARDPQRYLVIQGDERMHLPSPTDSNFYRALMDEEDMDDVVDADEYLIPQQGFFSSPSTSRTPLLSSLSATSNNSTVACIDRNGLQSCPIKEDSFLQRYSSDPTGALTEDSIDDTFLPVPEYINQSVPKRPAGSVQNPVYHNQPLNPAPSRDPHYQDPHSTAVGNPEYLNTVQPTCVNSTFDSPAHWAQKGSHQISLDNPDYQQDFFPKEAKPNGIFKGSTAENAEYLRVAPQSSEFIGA
CDK4/CyclinD1, sequence (P11802 whole entry, species assumed): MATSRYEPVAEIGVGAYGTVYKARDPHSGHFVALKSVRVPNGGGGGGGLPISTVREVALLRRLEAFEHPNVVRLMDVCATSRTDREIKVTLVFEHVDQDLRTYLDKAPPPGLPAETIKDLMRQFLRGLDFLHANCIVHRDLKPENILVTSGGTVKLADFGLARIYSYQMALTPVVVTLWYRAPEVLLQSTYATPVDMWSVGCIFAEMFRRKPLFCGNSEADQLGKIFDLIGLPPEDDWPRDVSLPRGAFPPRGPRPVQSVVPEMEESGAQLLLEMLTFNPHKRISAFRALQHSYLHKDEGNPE
CDK4/CyclinD1, sequence (P24385 whole entry partner, species assumed): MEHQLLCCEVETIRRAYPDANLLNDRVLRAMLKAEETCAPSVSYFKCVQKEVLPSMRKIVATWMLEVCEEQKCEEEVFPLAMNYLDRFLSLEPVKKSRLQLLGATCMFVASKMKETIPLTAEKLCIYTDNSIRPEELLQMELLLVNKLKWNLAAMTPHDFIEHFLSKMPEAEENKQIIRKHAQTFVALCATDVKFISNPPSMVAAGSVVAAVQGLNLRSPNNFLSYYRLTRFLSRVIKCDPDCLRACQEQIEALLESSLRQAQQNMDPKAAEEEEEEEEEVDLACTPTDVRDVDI

melting point [°C] | inhibition at 50 µM ([1]; 50 μM) [%] | inhibition at 100 µM ([1]; 100 μM) [%] | inhibition at 50 µM ([2]; 50 μM) [%] | inhibition at 100 µM ([2]; 100 μM) [%] | inhibition at 50 µM ([3]; 50 μM) [%] | inhibition at 100 µM ([3]; 100 μM) [%] | inhibition at 50 µM ([4]; 50 μM) [%] | inhibition at 100 µM ([4]; 100 μM) [%] | IC50 [5] [µM] | IC50 ([6]; A549, MTT, 48 h) [µM] | IC50 ([7]; MCF7, MTT, 48 h) [µM] | IC50 [8] [µM] | IC50 [9] [µM] | Structure (SMILES) | inhibition at 100 µM [5] [%] | inhibition at 100 µM [6] [%] | inhibition at 100 µM [7] [%] | inhibition at 100 µM [8] [%] | inhibition at 100 µM [9] [%]
> 300 | 31 | 73 | -178 | -185 | 79 | 85 | 83 | 90 | 6.9 ± 0.5 | 3.21 ± 0.4 | 9.1 ± 2.1 | 0.3 | 5.3 ± 0.09 | COc1cccc(-c2cc(-c3cccnc3)nc3nc(-n4[nH]c(C)cc4=O)[nH]c(=O)c23)c1 [Target] | 99 | 99 | 87 | 100 | 100
 |  |  |  |  |  |  |  |  | 12.8 ± 1 |  |  | 0.6 | 6.8 ± 1.2 | COc1cccc2c1C(=O)c1c(O)c3c(c(O)c1C2=O)C[C@@](O)(C(=O)CO)C[C@@H]3O[C@H]1C[C@H](N)[C@H](O)[C@H](C)O1 [doxorubicin, reference compound] | 100 | 100 | 91 | 100 | 100
